Experimental data taken from US11214594B2, “Antimicrobial peptide having synergistic antibacterial effect with antibiotics on multidrug resistant bacteria, and use thereof” (priority 2016, dated 2022).
Converted amounts (≈) assume the structure as drawn. Read-outs that look alike come from different tables or passages of the source. Where a SMILES comes first, the peptide text is derived from it.

Legend:
[1] = tested on: A. baumannii; assay: microbe, parasite or virus in culture; assay type: cell-based, Acinetobacter baumannii
Method: (§1) For the antibacterial activity, a minimal inhibitory concentration (MIC) of a peptide in which fungus bodies were not split in an MH medium with sufficient nutrients was measured.
(§2) Specifically, the strains described in the following [Table 2] were purchased and diluted with an MH medium such that the number of bacteria was 2×10^6 colony-forming units (CFUs), 100 μl of each of the diluted strains was aliquoted into a 96-well microtiter plate, and then 100 μl of a peptide solution diluted with the MH medium (solution diluted stepwise at 2: 1) was added to each well.

[2] = tested on: MDRAB 12035; assay: microbe, parasite or virus in culture; assay type: cell-based, Acinetobacter baumannii
Method: as §1, §2

[3] = tested on: S. aureus; assay: microbe, parasite or virus in culture; assay type: cell-based, Staphylococcus aureus
Method: as §1, §2

[4] = tested on: MDRAB 12036; assay type: cell-based, Acinetobacter baumannii
Method: as §1, §2

[5] = tested on: S. epidermidis; assay: microbe, parasite or virus in culture; assay type: cell-based, Staphylococcus epidermidis
Method: as §1, §2

[6] = tested on: gram-negative bacteria; assay: MIC, summary statements for gram-negative bacteria; assay type: cell-based; conditions: gram-negative bacteria
Method: as §1, §2

[7] = tested on: E. coli; assay: MIC of antibiotic during combined treatment with antimicrobial peptide; assay type: cell-based, Escherichia coli; conditions: E. coli and A. baumannii; antibiotic MIC with papiliocin
Method: Thereafter, the MIC value of each mixed solution was determined by diluting the antibiotic solution with the MH medium, adding 50 μl of the diluted solution to each well, and performing an experiment even under a reversed condition.

[8] = tested on: P. aeruginosa; assay: microbe, parasite or virus in culture; assay type: cell-based, Pseudomonas aeruginosa
Method: as §1, §2

[9] = tested on: S. typhimurium; assay: microbe, parasite or virus in culture; assay type: cell-based, Salmonella typhimurium
Method: as §1, §2

[10] = tested on: MDREC 1238; assay type: cell-based, Escherichia coli
Method: as §1, §2

[11] = tested on: MDREC 1229; assay: microbe, parasite or virus in culture; assay type: cell-based, Escherichia coli
Method: as §1, §2

[12] = tested on: E. coli; assay: microbe, parasite or virus in culture; assay type: cell-based, Escherichia coli
Method: as §1, §2

[13] = tested on: MRSA 3126; assay type: cell-based, Staphylococcus aureus
Method: as §1, §2

[14] = tested on: MRSA 3114; assay type: cell-based, Staphylococcus aureus
Method: as §1, §2

[15] = tested on: B. subtilis; assay: microbe, parasite or virus in culture; assay type: cell-based, Bacillus subtilis
Method: as §1, §2

[16] = tested on: MDRPA 2002; assay type: cell-based, Pseudomonas aeruginosa
Method: as §1, §2

[17] = tested on: MDRPA 2003; assay type: cell-based, Pseudomonas aeruginosa
Method: as §1, §2

[18] = tested on: E. coli; assay type: cell-based, Escherichia coli; conditions: for Peptide MIC during treatment with erythromycin / Peptide MIC during treatment with linezolid / Peptide MIC during treatment with vancomycin: E. coli
Method: (§3) Specifically, the strains described in [Table 2] were prepared and diluted with an MH medium such that the number of bacteria was 2×10^6 colony-forming units (CFUs) per 1 ml, 100 μl of the diluted strains was each aliquoted into a 96-well microtiter plate, and then 50 μl of a peptide solution diluted with the MH medium from the MIC value (solution diluted stepwise at 2: 1) was added to each well. Thereafter, the MIC value of each mixed solution was determined by diluting the antibiotic solution with the MH medium, adding 50 μl of the diluted solution to each well, and performing an experiment even under a reversed condition.

[19] = tested on: gram-positive bacteria; assay: MIC, summary statements for gram-positive bacteria; assay type: cell-based
Method: as §1, §2

[20] = tested on: A. baumannii; assay: MIC of antimicrobial peptide during combined treatment with antibiotic; assay type: cell-based, Acinetobacter baumannii
Method: as §3

[21] = tested on: MDRST 8009; assay type: cell-based, Salmonella typhimurium; conditions: agent alone
Method: as §1, §2

[22] = tested on: MDRST 8007; assay: Minimal inhibitory concentration (MIC), single agent; assay type: cell-based, Salmonella typhimurium; conditions: agent alone
Method: as §1, §2

[23] = linezolid 32 μg/ml (Conc./MIC 1/8)
[24] = linezolid 64 μg/ml (Conc./MIC 1/4)
[25] = vancomycin 512 μg/ml (Conc./MIC 1/2)
[26] = vancomycin 1024 μg/ml (Conc./MIC 1)

Structure (SMILES): CC[C@H](C)[C@H](NC(=O)CNC(=O)[C@H](CC(=O)O)NC(=O)[C@H](CCCNC(=N)N)NC(=O)[C@@H](NC(=O)[C@H](CC(N)=O)NC(=O)[C@H](CCCNC(=N)N)NC(=O)CNC(=O)[C@@H](NC(=O)[C@H](CCCCN)NC(=O)[C@H](CCC(=O)O)NC(=O)[C@@H](NC(=O)[C@H](CCCCN)NC(=O)[C@H](CCCCN)NC(=O)[C@H](Cc1ccccc1)NC(=O)[C@@H](NC(=O)[C@H](CCCCN)NC(=O)[C@H](Cc1c[nH]c2ccccc12)NC(=O)[C@@H](N)CCCNC(=N)N)[C@@H](C)CC)[C@@H](C)CC)C(C)C)C(C)C)C(=O)N[C@H](C(=O)N[C@@H](CCCCN)C(=O)N[C@@H](C)C(=O)NCC(=O)N1CCC[C@H]1C(=O)N[C@@H](C)C(=O)N[C@H](C(=O)N[C@@H](C)C(=O)N[C@H](C(=O)N[C@H](C(=O)NCC(=O)N[C@@H](CCC(N)=O)C(=O)N[C@@H](C)C(=O)N[C@@H](C)C(=O)N[C@H](C(=O)N[C@H](C(=O)N[C@H](C(=O)N[C@@H](CCCCN)C(N)=O)C(C)C)C(C)C)[C@@H](C)O)C(C)C)C(C)C)C(C)C)[C@@H](C)CC [Papiliocin, reference compound] (H-RWKIFKKIEKVGRNVRDGIIKAGPAVAVVGQAATVVK-NH2; N-terminus and C-terminus assumed)
- Minimal inhibitory concentration MIC [1]: 8 µg/mL (≈ 2 µM)
- Peptide MIC, peptide alone [1]: 8 µg/mL
- Minimal inhibitory concentration MIC [2]: 8 µg/mL (≈ 2 µM)
- Minimal inhibitory concentration MIC [3]: >128 µg/mL
- Minimal inhibitory concentration MIC [4]: 16 µg/mL (≈ 4 µM)
- Minimal inhibitory concentration MIC [5]: >128 µg/mL
- Antibacterial activity (in words) [6]: very high antibacterial activity
- Synergistic effect of combination with the antibiotics (in words) [7]: does not have a great synergistic effect
- Minimal inhibitory concentration MIC [8]: 16 µg/mL (≈ 4 µM)
- Minimal inhibitory concentration MIC [9]: 16 µg/mL (≈ 4 µM)
- Minimal inhibitory concentration MIC [10]: 16 µg/mL (≈ 4 µM)
- Minimal inhibitory concentration MIC [11]: 8 µg/mL (≈ 2 µM)
- Peptide MIC, single treatment [12]: 8 µg/mL
- Minimal inhibitory concentration MIC ([12]; 16 h): 8 µg/mL (≈ 2 µM)
- Minimal inhibitory concentration MIC [13]; 3126: >128 µg/mL
- Minimal inhibitory concentration MIC [14]; 3114: >128 µg/mL
- Minimal inhibitory concentration MIC [15]: >128 µg/mL
- Minimal inhibitory concentration MIC [16]: 16 µg/mL (≈ 4 µM)
- Minimal inhibitory concentration MIC [17]: 16 µg/mL (≈ 4 µM)
- Peptide MIC during treatment with erythromycin ([18]; erythromycin 16 μg/ml (Conc./MIC 1/8)): 4 µg/mL
- Peptide MIC during treatment with erythromycin ([18]; erythromycin 32 μg/ml (Conc./MIC 1/4)): 4 µg/mL
- Peptide MIC during treatment with erythromycin ([18]; erythromycin 64 μg/ml (Conc./MIC 1/2)): 4 µg/mL
- Peptide MIC during treatment with erythromycin ([18]; erythromycin […] (Conc./MIC 1)): 0 µg/mL
- Peptide MIC during treatment with linezolid [18, 23]: 8 µg/mL
- Peptide MIC during treatment with linezolid [18, 24]: 4 µg/mL
- Peptide MIC during treatment with linezolid ([18]; linezolid […] (Conc./MIC 1)): 0 µg/mL
- Peptide MIC during treatment with linezolid ([18]; linezolid […] (Conc./MIC 1/2)): 4 µg/mL
- Peptide MIC during treatment with vancomycin [18, 25]: 2 µg/mL
- Peptide MIC during treatment with vancomycin [18, 26]: 0 µg/mL
- Peptide MIC during treatment with vancomycin ([18]; vancomycin […] (Conc./MIC 1/4)): 2 µg/mL
- Peptide MIC during treatment with vancomycin ([18]; vancomycin […] (Conc./MIC 1/8)): 4 µg/mL
- Synergistic effect on peptide MIC when mixed with antibiotics (in words) ([18]; papiliocin as comparative control (Table 34)): does not have a synergistic effect
- Antibacterial activity (in words) [19]: very low antibacterial activity
- Peptide MIC during treatment with erythromycin ([20]; erythromycin 4 μg/ml (Conc./MIC 1/8)): 8 µg/mL
- Peptide MIC during treatment with erythromycin ([20]; erythromycin 8 μg/ml (Conc./MIC 1/4)): 4 µg/mL
- Peptide MIC during treatment with erythromycin ([20]; erythromycin 16 μg/ml (Conc./MIC 1/2)): 4 µg/mL
- Peptide MIC during treatment with erythromycin ([20]; erythromycin 32 μg/ml (Conc./MIC 1)): 0 µg/mL
- Peptide MIC during treatment with linezolid [20, 23]: 8 µg/mL
- Peptide MIC during treatment with linezolid [20, 24]: 4 µg/mL
- Peptide MIC during treatment with linezolid ([20]; linezolid […] (Conc./MIC 1)): 0 µg/mL
- Peptide MIC during treatment with linezolid ([20]; linezolid […] (Conc./MIC 1/2)): 4 µg/mL
- Peptide MIC during treatment with vancomycin [20, 25]: 2 µg/mL
- Peptide MIC during treatment with vancomycin [20, 26]: 0 µg/mL
- Peptide MIC during treatment with vancomycin ([20]; vancomycin […] (Conc./MIC 1/4)): 2 µg/mL
- Peptide MIC during treatment with vancomycin ([20]; vancomycin […] (Conc./MIC 1/8)): 4 µg/mL

Structure (SMILES): CC[C@H](C)[C@H](NC(=O)CN)C(=O)NCC(=O)N[C@@H](C)C(=O)N[C@H](C(=O)N[C@@H](CC(C)C)C(=O)N[C@@H](CCCCN)C(=O)N[C@H](C(=O)N[C@@H](CC(C)C)C(=O)N[C@H](C(=O)N[C@H](C(=O)NCC(=O)N[C@@H](CC(C)C)C(=O)N1CCC[C@H]1C(=O)N[C@@H](C)C(=O)N[C@@H](CC(C)C)C(=O)N[C@H](C(=O)N[C@@H](CO)C(=O)N[C@@H](Cc1c[nH]c2ccccc12)C(=O)N[C@H](C(=O)N[C@@H](CCCCN)C(=O)N[C@@H](CCCNC(=N)N)C(=O)N[C@@H](CCCCN)C(=O)N[C@@H](CCCNC(=N)N)C(=O)N[C@@H](CCC(N)=O)C(=O)N[C@@H](CCC(N)=O)C(N)=O)[C@@H](C)CC)[C@@H](C)CC)[C@@H](C)O)[C@@H](C)O)C(C)C)C(C)C [Melittin, reference compound]
- Minimal inhibitory concentration MIC [21]: 32 µg/mL (≈ 11.2 µM)
- Minimal inhibitory concentration MIC ([1]; A. baumannii, agent alone): 8 µg/mL (≈ 2.81 µM)
- Minimal inhibitory concentration MIC ([2]; MDRAB 12035, agent alone): 8 µg/mL (≈ 2.81 µM)
- Minimal inhibitory concentration MIC ([4]; MDRAB 12036, agent alone): 16 µg/mL (≈ 5.62 µM)
- Minimal inhibitory concentration MIC ([5]; S. epidermidis, agent alone): 16 µg/mL (≈ 5.62 µM)
- Minimal inhibitory concentration MIC ([10]; MDREC 1238, agent alone): 32 µg/mL (≈ 11.2 µM)
- Minimal inhibitory concentration MIC ([11]; MDREC 1229, agent alone): 16 µg/mL (≈ 5.62 µM)
- Minimal inhibitory concentration MIC ([13]; MRSA 3126, agent alone): 16 µg/mL (≈ 5.62 µM)
- Minimal inhibitory concentration MIC ([14]; MRSA 3114, agent alone): 8 µg/mL (≈ 2.81 µM)
- Minimal inhibitory concentration MIC [22]: 32 µg/mL (≈ 11.2 µM)
- Minimal inhibitory concentration MIC ([16]; MDRPA 2002, agent alone): 16 µg/mL (≈ 5.62 µM)
- Minimal inhibitory concentration MIC ([17]; MDRPA 2003, agent alone): 16 µg/mL (≈ 5.62 µM)
